From patent US20180179499A1, “BIOBASED PRODUCTION OF FUNCTIONALIZED ALPHA-SUBSTITUTED ACRYLATES AND C4-DICARBOXYLATES” (BIOAMBER INC., priority 2015, published 2018)

Tests used:
[1] = tested on: potential bacterial hosts (E. coli, C. glutamicum, B. firmus, B. cohnii); experiment: Tolerance of potential bacterial hosts: highest concentration with growth observed; format: cell-based; conditions: Table F, max conc tested 100 g/L
Procedure: (§1) Two eukaryotic strains, I. orientalis and S. cerevisiae, were tested at pH 3 and pH 5. Three bacterial strains were tested using their individual optimal conditions. E. coli and C. glutamicum were tested at pH 8 and 30° C., and B. firmus was tested at pH 9 and 37° C. I. orientalis was grown in defined yeast media consisting of 5 g/L ammonium sulfate, 0.5 g/L magnesium sulfate heptahydrate, 3 g/L potassium phosphate monobasic, 10 g/L dextrose, 1 mL/L of 10% glycerol stock, 1 mL/L of 1000× trace. The 1000× trace stock solution contains 4 g/L ZnSO4.7H2O, 2 g/L FeSO4.7H2O, 1 g/L MnSO4.H2O, 0.2 g/L CuSO4.5H2O, and 0.8 mL/L H2SO4. S. cerevisiae was grown in buffered defined dextrose media consisting of 50 g/L dextrose, 5 g/L yeast extract, and 40 mL/L 25× DM salts. The 25× DM salt stock solution contains 125 g/L ammonium sulfate, 12.5 g/L magnesium sulfate heptahydrate, 75 g/L potassium phosphate monobasic, and 787.5 g/L water. The bacterial strains were grown in standard LB media consisting of 10 g/L bacto-tryptone, 5 g/L yeast extract, 10 g/L NaCl, and 20 g/L dextrose with addition of 20 g/L glucose.
(§2) Time points were taken over a period of at least 8 hours and up to 24 hours to calculate the rate of growth. Specific growth rate was determined by plotting the natural logarithm of cell number against time. Tolerance was determined by growth rate of cells in the presence of the compound as compared to in the absence of the compound.
(§3) Two eukaryotic strains, I. orientalis and S. cerevisiae, were tested for tolerance to the selected compounds at pH 3 and pH 5. The bacterial strains were grown at their individual optimal conditions, E coli and C. glutamicum at pH 8 and 30° C., and B. firmus and B. cohnii at pH 9 and 37° C. I. orientalis was grown in defined yeast media consisting of 5 g/L ammonium sulfate, 0.5 g/L magnesium sulfate heptahydrate, 3 g/L potassium phosphate monobasic, 10 g/L dextrose, 1 mL/L of 10% glycerol stock, 1 mL/L of 1000× trace. The 1000× trace stock solution contains 4 g/L ZnSO4.7H2O, 2 g/L FeSO4.7H2O, 1 g/L MnSO4.H2O, 0.2 g/L CuSO4.5H2O, and 0.8 mL/L H2SO4. S. cerevisiae was grown in buffered defined dextrose media consisting of 50 g/L dextrose, 5 g/L yeast extract, and 40 mL/L 25×DM salts. The 25×DM salt stock solution contains 125 g/L ammonium sulfate, 12.5 g/L magnesium sulfate heptahydrate, 75 g/L potassium phosphate monobasic, and 787.5 g/L water. The bacterial strains were grown in standard LB media consisting of 10 g/L bacto-tryptone, 5 g/L yeast extract, 10 g/L NaCl, and 20 g/L dextrose with addition of 20 g/L glucose.
as §2

C. glutamicum = experiment: Host tolerance: growth rate with compound versus unchallenged cells; format: cell-based; conditions: pH 8, 30° C.
Procedure: (§4) Potential hosts for the described pathways to alpha substituted C4 dicarboxylic acids were identified by determining the tolerance to functionalized alpha substituted dicarboxylic acids as shown in FIG. 2. Specific functionalized alpha substituted C4 dicarboxylic acid compounds were selected to assess tolerance of bacterial and eukaryotic hosts.
as §1
(§5) Time points were taken over a period of at least 8 hours and up to 24 hours to calculate the rate of growth. Specific growth rate was determined by plotting the natural logarithm of cell number against time. Tolerance was determined by growth rate of cells in the presence of the compound as compared to in the absence of the compound. The scoring method is indicated in Table D. The results of the tolerance studies are shown in Tables E and F. The second column from the left denotes the maximum concentration of the indicated compound in which growth was detected. […] I. orientalis is also a suitable host for most of the compounds.
(§6) Potential hosts for the described pathways to alpha substituted acrylic acid were identified by determining the tolerance to functionalized alpha substituted acrylic acid end-products as shown generally in FIGS. 1 and 3 and more specifically in FIGS. 9 and 10. […]
(§7) Time points were taken over a period of at least 8 hours and up to 24 hours to calculate the rate of growth. Specific growth rate was determined by plotting the natural logarithm of cell number against time. […]

B. firmus = experiment: as above; format: cell-based; conditions: pH 9, 37° C.
Procedure: as §4, §1, §5, §6, §7

E. coli = experiment: as above; format: cell-based; conditions: pH 8, 30° C.
Procedure: Two eukaryotic strains, I. orientalis and S. cerevisiae, were tested at pH 3 and pH 5. Three bacterial strains were tested using their individual optimal conditions. E. coli and C. glutamicum were tested at pH 8 and 30° C., and B. firmus was tested at pH 9 and 37° C. I. orientalis was grown in defined yeast media consisting of 5 g/L ammonium sulfate, 0.5 g/L magnesium sulfate heptahydrate, 3 g/L potassium phosphate monobasic, 10 g/L dextrose, 1 mL/L of 10% glycerol stock, 1 mL/L of 1000× trace. The 1000× trace stock solution contains 4 g/L ZnSO4.7H2O, 2 g/L FeSO4.7H2O, 1 g/L MnSO4.H2O, 0.2 g/L CuSO4.5H2O, and 0.8 mL/L H2SO4. […]
as §2, with “compound. […]” for “compound.”
as §2

[2] = tested on: potential yeast hosts (I. orientalis, S. cerevisiae); experiment: Tolerance of potential yeast hosts: maximum concentration in which growth was detected; format: cell-based; conditions: Table E
Procedure: as §1, §2, §3, §2

[3] = Dehydration of HM3HP to HMA at different temperature and pH (NMR); format: physicochemical; conditions: overnight
Procedure: In the case of the microorganism producing alpha-substituted 3-hydroxymethyl acid, such as in Examples 9 and 21, this compound is dehydrated to alpha-substituted acrylic acid. In one embodiment, alpha-hydroxymethyl 3-hydroxypropionic acid (HM3HP) is dehydrated to alpha-hydroxymethyl acrylic acid (HMA). A known amount of HM3HP was dissolved into buffered solution. […] Samples were incubated at −20° C., 30° C., or 70° C. overnight. NMR analysis was used to measure the amount of HM3HP that was dehydrated to HMA. […] The pH of the solution had more effect on conversion to HMA than did changes in temperature.

S. cerevisiae = experiment: Host tolerance to hydroxymethyl-3HP, relative OD after 24 hours; format: cell-based; conditions: 24 hours incubation at 30° C.
Procedure: (§8) FIG. 33(a) presents comparative tolerance data of potential host organisms to 3-hydroxymethyl 3-hydroxypropionic acid (HM3HP) where Km=K. marxianus, Sc=S. cerevisiae, Ec=E. coli (from Example 17). Within each grouping, the right bar represents Ec, the left bar represents Km, and the middle bar represents Sc.
as §3
(§9) In one embodiment, alpha substituted 3-hydroxypropionic acid is produced by the host organism. In a specific embodiment, alpha hydroxymethyl 3-hydroxypropionic acid is produced by the host organism. To evaluate host organisms, the protocol described above was used. The relative OD at the end of 24 hours incubation at 30° C. was compared for Kluyveromyces marxianus, S. cerevisiae, and E coli in the presence of different amounts of hydroxymethyl-3HP (FIG. 33(a)).

Kluyveromyces marxianus = experiment: as above; format: cell-based; conditions: K. marxianus, 24 hours incubation at 30° C.
Procedure: as §8, §3, §9

E coli = experiment: as above; format: cell-based; conditions: 24 hours incubation at 30° C.
Procedure: as §8, §3, §9

[4] = Dehydratase assay: lysate incubated with itatartaric acid, HPLC/NMR; format: biochemical; conditions: knockout E coli strains (acnA or acnB deleted), lysate with ITT overnight at 30° C., HPLC
Procedure: E. coli optimized genes encoding dehydratases are synthesized and cloned into pTrcHisA (Life Technologies (formerly Invitrogen)). Dehydratase candidates are found in Table I. Plasmids containing the optimized synthase genes are transformed into BL21 E. coli cells. Empty plasmid pTrcHisA are also transformed as a negative control. […]. Flasks are incubated at 30° C. at 250 rpm shaking for 2 hours, then protein production is induced with 0.2 mM IPTG and incubated for 4 more hours at 30° C. while shaking. Cells are harvested by centrifugation and pellets are stored at −80° C.
Cells are lysed using mechanical disruption using a BeadBeater (BopSpec products, Bartlesville, Okla.) using the manufacturer's instructions. […] Protein concentrations of the resulting clarified lysates are measured via BioRad total Protein assay using the manufacturer's instructions. […]
The reaction mixture contains 100 mM TAPS buffer pH 6.8, 100 mM KCl, 100 mM substrate alpha (hydroxymethyl) maleic acid. […] The reactions in these microplates are monitored at 235 nm. Readings are taken every 9 seconds for 10 minutes and the data is used to calculate activities of each enzyme. Background absorbance is measured by the same reaction with no substrate present are subtracted. […]
The lysates were incubated with or without a known amount of synthesized ITT overnight at 30° C., and then the samples were analyzed by HPLC. […]

## O=C(O)CC1(C(=O)O)CCC(=O)O1 (centres unmarked) [Homocitrate lactone]
[1]
  Highest conc with growth observed: 100 g/L
C. glutamicum
  Tolerance score (percent growth rate as compared to unchallenged cells): − (10-0%)
B. firmus
  Tolerance score (percent growth rate as compared to unchallenged cells): − (10-0%)
E. coli
  Tolerance score (percent growth rate as compared to unchallenged cells): +++ (100-90%)
[2]
  Max conc (maximum concentration in which growth was detected): 100 g/L

## O=C(O)CC[C@@](O)(CC(=O)O)C(=O)O [Homocitrate]
[1]
  Highest conc with growth observed: 50 g/L
C. glutamicum
  Tolerance score (percent growth rate as compared to unchallenged cells): +++ (100-90%)
B. firmus
  Tolerance score (percent growth rate as compared to unchallenged cells): − (10-0%)
E. coli
  Tolerance score (percent growth rate as compared to unchallenged cells): − (10-0%)
[2]
  Max conc (maximum concentration in which growth was detected): 100 g/L

## O=C(O)C(CO)CO [alpha-hydroxymethyl 3-hydroxypropionic acid]
[3]; pH 3, 30 C.
  Relative HMA levels: 0.00
[3]; pH 3, 70 C.
  Relative HMA levels: 0.00
[3]; pH 3, −20 C.
  Relative HMA levels: 0.00
[3]; pH 7, 30 C.
  Relative HMA levels: 0.13
[3]; pH 7, 70 C.
  Relative HMA levels: 0.18
[3]; pH 7, −20 C.
  Relative HMA levels: 0.13
[3]; pH 10, 30 C.
  Relative HMA levels: 1.18
[3]; pH 10, 70 C.
  Relative HMA levels: 1.00
[3]; pH 10, −20 C.
  Relative HMA levels: 0.81
S. cerevisiae
  Tolerated concentration: at least 60 g/L
Kluyveromyces marxianus
  Tolerated concentration: at least 60 g/L
E coli
  Tolerated concentration: at least 60 g/L

B1: acnA: E coli aconitase acnA, endogenous dehydratase, GenBank CAA42834 (protein, UniProt P25516 2-891, looked up)
Aconitate hydratase A: SSTLREASKDTLQAKDKTYHYYSLPLAAKSLGDITRLPKSLKVLLENLLRWQDGNSVTEEDIHALAGWLKNAHADREIAYRPARVLMQDFTGVPAVVDLAAMREAVKRLGGDTAKVNPLSPVDLVIDHSVTVDRFGDDEAFEENVRLEMERNHERYVFLKWGKQAFSRFSVVPPGTGICHQVNLEYLGKAVWSELQDGEWIAYPDTLVGTDSHTTMINGLGVLGWGVGGIEAEAAMLGQPVSMLIPDVVGFKLTGKLREGITATDLVLTVTQMLRKHGVVGKFVEFYGDGLDSLPLADRATIANMSPEYGATCGFFPIDAVTLDYMRLSGRSEDQVELVEKYAKAQGMWRNPGDEPIFTSTLELDMNDVEASLAGPKRPQDRVALPDVPKAFAASNELEVNATHKDRQPVDYVMNGHQYQLPDGAVVIAAITSCTNTSNPSVLMAAGLLAKKAVTLGLKRQPWVKASLAPGSKVVSDYLAKAKLTPYLDELGFNLVGYGCTTCIGNSGPLPDPIETAIKKSDLTVGAVLSGNRNFEGRIHPLVKTNWLASPPLVVAYALAGNMNINLASEPIGHDRKGDPVYLKDIWPSAQEIARAVEQVSTEMFRKEYAEVFEGTAEWKGINVTRSDTYGWQEDSTYIRLSPFFDEMQATPAPVEDIHGARILAMLGDSVTTDHISPAGSIKPDSPAGRYLQGRGVERKDFNSYGSRRGNHEVMMRGTFANIRIRNEMVPGVEGGMTRHLPDSDVVSIYDAAMRYKQEQTPLAVIAGKEYGSGSSRDWAAKGPRLLGIRVVIAESFERIHRSNLIGMGILPLEFPQGVTRKTLGLTGEEKIDIGDLQNLQPGATVPVTLTRADGSQEVVPCRCRIDTATELTYYQNDGILHYVIRNMLK
[4]
  Formation of ITT dehydration product: capable of producing the observed dehydration product
